In patent US20230374015A1, “INHIBITORS OF FIBROBLAST GROWTH FACTOR RECEPTOR KINASES” (Kinnate Biopharma Inc., priority 2020, published 2023):

biological target: FGFR2 (Homo sapiens, UniProt P21802); experiment: FGFR2 Kinase Protocol - Condition 2 (Reaction Biology HotSpot radiometric kinase assay, no preincubation); type: biochemical; details: poly[Glu:Tyr] (4:1) 0.2 mg/ml, ATP 100 microM, 2 hr room temperature
Procedure: Example 2: FGFR2 Kinase Protocol—Condition 2
The Reaction Biology HotSpot assay platform (http://www.reactionbiology.com) was used to measure kinase/inhibitor interactions as described previously (Anastassiadis et al., 2011). In brief, for each reaction, kinase and substrate were mixed in a buffer containing 20 mM HEPES (pH 7.5), 10 mM MgCl2, 1 mM EGTA, 0.02% Brij35, 0.02 mg/mL BSA, 0.1 mM Na3VO4, 2 mM DTT, and 1% DMSO. All compounds were in powder form and freshly solubilized in DMSO for assays. Compounds were then added to each reaction mixture via acoustic dispense using an ECHO 550 nanoliter dispenser. For Human FGFR2 wildtype testing, a peptide substrate, poly[Glu:Tyr] (4:1) was used to promote the reaction at a concentration of 0.2 mg/ml. For Human FGFR2 (V564F) testing, a peptide substrate, poly[Glu:Tyr] (4:1) was used to promote the reaction at a concentration of 0.2 mg/ml. ATP concentration for all assays was maintained at 100 micromolar. Compounds were tested in 10-dose IC50 mode with a 3-fold serial dilution. Compounds were added to plates and ATP was added directly to the wells. ATP (Sigma-Aldrich, St. Louis, MO 63178) and [g33P] ATP (specific activity 10 microCi/microliter) purchased at PerkinElmer (Boston, MA, 02118 Cat #BLU 003H250UC) were added at a final total concentration of 100 microM to each well with no preincubation. Reactions were carried out at room temperature for 2 hr and spotted onto P81 ion exchange cellulose chromatography paper (Reaction Biology). Filter paper was washed in 0.75% phosphoric acid to remove unincorporated ATP. The percent remaining kinase activity relative to a vehicle-containing (DMSO) kinase reaction was calculated for each kinase/inhibitor pair. IC50 values were calculated using Dotmatics Knowledge Solutions Studies curve fitting (Dotmatics, Bishops Stortford, UK, CM23).

Chain of FGFR2 (P21802 22-821): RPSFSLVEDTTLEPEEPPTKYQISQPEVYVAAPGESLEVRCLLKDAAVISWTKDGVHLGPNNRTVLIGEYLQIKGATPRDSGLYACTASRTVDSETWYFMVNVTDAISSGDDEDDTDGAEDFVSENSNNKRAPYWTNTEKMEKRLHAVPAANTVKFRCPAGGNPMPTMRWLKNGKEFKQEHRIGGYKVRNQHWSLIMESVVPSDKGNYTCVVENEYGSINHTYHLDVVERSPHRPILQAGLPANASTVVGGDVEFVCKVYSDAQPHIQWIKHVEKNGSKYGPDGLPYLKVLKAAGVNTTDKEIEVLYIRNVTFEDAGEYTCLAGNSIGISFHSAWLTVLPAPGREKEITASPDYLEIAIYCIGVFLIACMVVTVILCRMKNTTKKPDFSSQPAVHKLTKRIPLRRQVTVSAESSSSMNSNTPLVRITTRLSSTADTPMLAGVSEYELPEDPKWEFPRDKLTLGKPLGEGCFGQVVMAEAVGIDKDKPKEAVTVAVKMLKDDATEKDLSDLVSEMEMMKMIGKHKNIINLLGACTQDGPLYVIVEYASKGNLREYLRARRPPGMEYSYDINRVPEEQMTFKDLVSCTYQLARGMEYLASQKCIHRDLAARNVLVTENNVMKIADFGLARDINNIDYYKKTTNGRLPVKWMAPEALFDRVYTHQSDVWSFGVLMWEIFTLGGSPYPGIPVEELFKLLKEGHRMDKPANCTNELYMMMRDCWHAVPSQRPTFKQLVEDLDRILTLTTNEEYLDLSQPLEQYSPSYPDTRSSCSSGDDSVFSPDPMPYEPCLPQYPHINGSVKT

Row | Compound | IC50
1 | C=CC(=O)N1C[C@@H](n2nc(C#Cc3cc4ncn(C)c4cc3F)c3c(N)nccc32)C[C@@H]1COC [Example 74, 1-[(2R,4S)-4-[4-Amino-3-[2-(6-fluoro-1-methyl-1,3-benzodiazol-5-yl)ethynyl]pyrazolo[4,3-c]pyridin-1-yl]-2-(methoxymethyl)pyrrolidin-1-yl]prop-2-en-1-one] | ≤ 100 nM
2 | C=CC(=O)N1C[C@@H](n2nc(C#Cc3cc4nc(C)n(C)c4cc3Cl)c3c(N)ncnc32)C[C@@H]1COC [Example 96, 1-[(2R,4S)-4-[4-Amino-3-[2-(6-chloro-1,2-dimethyl-1,3-benzodiazol-5-yl)ethynyl]pyrazolo[3,4-d]pyrimidin-1-yl]-2-(methoxymethyl)pyrrolidin-1-yl]prop-2-en-1-one] | ≤ 100 nM
3 | C=CC(=O)N1CC[C@H](c2nc(C#Cc3cc4ncn(C5CC5)c4cc3F)c3c(N)nccn23)C1 [Example 201, 1-[(3 S)-3-{8-Amino-1-[2-(1-cyclopropyl-6-fluoro-1,3-benzodiazol-5-yl)ethynyl]imidazo[1,5-a]pyrazin-3-yl}pyrrolidin-1-yl]prop-2-en-1-one] | 100 to 1000 nM
4 | C=CC(=O)N1CC[C@H](n2nc(C#Cc3cc4ncn(CC)c4c(F)c3Cl)c3c(N)nccc32)C1 [Example 136, (S)-1-(3-(4-Amino-3-((6-chloro-1-ethyl-7-fluoro-1H-benzo[d]imidazol-5-yl)ethynyl)-1H-pyrazolo[4,3-c]pyridin-1-yl)pyrrolidin-1-yl)prop-2-en-1-one] | ≤ 100 nM
5 | C=CC(=O)N1C[C@@H](n2nc(C#Cc3cc4ncn(CC)c4c(F)c3F)c3c(N)ncnc32)C[C@@H]1COC [Example 123, 1-[(2R,4S)-4-[4-Amino-3-[2-(1-ethyl-6,7-difluoro-1,3-benzodiazol-5-yl)ethynyl]pyrazolo[3,4-d]pyrimidin-1-yl]-2-(methoxymethyl)pyrrolidin-1-yl]prop-2-en-1-one] | ≤ 100 nM
6 | C=CC(=O)N1C[C@@H](n2cc(C#Cc3cc4ncn(CC)c4cc3Cl)c3c(N)ncnc32)C[C@@H]1COC [Example 93, 1-[(2R,4S)-4-[4-Amino-5-[2-(6-chloro-1-ethyl-1,3-benzodiazol-5-yl)ethynyl]pyrrolo[2,3-d]pyrimidin-7-yl]-2-(methoxymethyl)pyrrolidin-1-yl]prop-2-en-1-one] | ≤ 100 nM
7 | C=CC(=O)N1C[C@@H](n2nc(C#Cc3cc4nc(C)n(C(F)F)c4cc3Cl)c3c(N)ncnc32)C[C@@H]1COC [Example 129, 1-[(2R,4S)-4-(4-Amino-3-{2-[6-chloro-1-(difluoromethyl)-2-methyl-1,3-benzodiazol-5-yl]ethynyl}pyrazolo[3,4-d]pyrimidin-1-yl)-2-(methoxymethyl)pyrrolidin-1-yl]prop-2-en-1-one] | ≤ 100 nM
8 | C=CC(=O)N1C[C@@H](n2cc(C#Cc3cc4ncn(C)c4cc3Cl)c3c(N)ncnc32)C[C@@H]1COC [Example 91, 1-[(2R,4S)-4-[4-Amino-5-[2-(6-chloro-1-methyl-1,3-benzodiazol-5-yl)ethynyl]pyrrolo[2,3-d]pyrimidin-7-yl]-2-(methoxymethyl)pyrrolidin-1-yl]prop-2-en-1-one] | ≤ 100 nM
9 | C=CC(=O)N1CC[C@H](n2nc(C#Cc3cc4ncn(CC)c4c(F)c3Cl)c3c(N)ncnc32)C1 [Example 144, 1-[(3S)-3-{4-Amino-3-[2-(6-chloro-1-ethyl-7-fluoro-1,3-benzodiazol-5-yl)ethynyl]pyrazolo[3,4-d]pyrimidin-1-yl}pyrrolidin-1-yl]prop-2-en-1-one] | ≤ 100 nM
10 | C=CC(=O)N1C[C@@H](n2nc(C#Cc3c(F)cc4c(ncn4CC)c3F)c3c(N)nccc32)C[C@@H]1COC [Example 86, 1-[(2R,4S)-4-[4-Amino-3-[2-(1-ethyl-4,6-difluoro-1,3-benzodiazol-5-yl)ethynyl]pyrazolo[4,3-c]pyridin-1-yl]-2-(methoxymethyl)pyrrolidin-1-yl]prop-2-en-1-one] | ≤ 100 nM
11 | C=CC(=O)N1C[C@@H](n2nc(C#Cc3cc4ncn(C)c4c(F)c3Cl)c3c(N)ncnc32)C[C@@H]1CC#N [Example 161, 2-[(2R,4S)-4-{4-Amino-3-[2-(6-chloro-7-fluoro-1-methyl-1,3-benzodiazol-5-yl)ethynyl]pyrazolo[3,4-d]pyrimidin-1-yl}-1-(prop-2-enoyl)pyrrolidin-2-yl]acetonitrile] | ≤ 100 nM
12 | C=CC(=O)N1C[C@@H](n2nc(C#Cc3ccc4scnc4c3)c3c(N)ncnc32)C[C@@H]1COC [Example 112, 1-((2R,4S)-4-(4-Amino-3-(benzo[d]thiazol-5-ylethynyl)-1H-pyrazolo[3,4-d]pyrimidin-1-yl)-2-(methoxymethyl)pyrrolidin-1-yl)prop-2-en-1-one] | ≤ 100 nM
13 | C=CC(=O)N1C[C@@H](n2cc(C#Cc3cc4ncn(CC)c4cc3F)c3c(N)ncnc32)C[C@@H]1COC [Example 80, 1-[(2R,4S)-4-[4-Amino-5-[2-(1-ethyl-6-fluoro-1,3-benzodiazol-5-yl)ethynyl]pyrrolo[2,3-d]pyrimidin-7-yl]-2-(methoxymethyl)pyrrolidin-1-yl]prop-2-en-1-one] | ≤ 100 nM
14 | C=CC(=O)N1C[C@@H](n2nc(C#Cc3ccc4c(c3)ncn4C)c3c(N)ncnc32)C[C@@H]1COC(F)(F)F [Example 56, 1-((2R,4S)-4-(4-Amino-3-((1-methyl-1H-benzo[d]imidazol-5-yl)ethynyl)-1H-pyrazolo[3,4-d]pyrimidin-1-yl)-2-((trifluoromethoxy)methyl)pyrrolidin-1-yl)prop-2-en-1-one] | ≤ 100 nM
15 | C=CC(=O)N1C[C@@H](n2nc(C#Cc3cc4ncn(CC)c4cc3F)c3c(N)ncnc32)C[C@@H]1C(F)F [Example 170, 1-((2R,4S)-4-(4-amino-3-((1-ethyl-6-fluoro-1H-benzo[d]imidazol-5-yl)ethynyl)-1H-pyrazolo[3,4-d]pyrimidin-1-yl)-2-(difluoromethyl)pyrrolidin-1-yl)prop-2-en-1-one] | ≤ 100 nM
16 | C=CC(=O)N1C[C@@H](n2nc(C#Cc3c(F)cc4c(nc(C)n4C)c3F)c3c(N)nccc32)C[C@@H]1CC#N [Example 39, 2-((2R,4S)-1-acryloyl-4-(4-amino-3-((4,6-difluoro-1,2-dimethyl-1H-benzo[d]imidazol-5-yl)ethynyl)-1H-pyrazolo[4,3-c]pyridin-1-yl)pyrrolidin-2-yl)acetonitrile] | ≤ 100 nM
17 | C=CC(=O)N1C[C@@H](n2nc(C#Cc3cc4ncn(C(F)F)c4cc3F)c3c(N)ncnc32)C[C@@H]1COC [Example 82, 1-[(2R,4S)-4-(4-Amino-3-[2-[1-(difluoromethyl)-6-fluoro-1,3-benzodiazol-5-yl]ethynyl]pyrazolo[3,4-d]pyrimidin-1-yl)-2-(methoxymethyl)pyrrolidin-1-yl]prop-2-en-1-one] | ≤ 100 nM
18 | C=CC(=O)N1CC[C@H](n2nc(C#Cc3cc4ncn(C)c4c(F)c3F)c3c(N)ncnc32)C1 [Example 154, 1-[(3S)-3-{4-Amino-3-[2-(6,7-difluoro-1-methyl-1,3-benzodiazol-5-yl)ethynyl]pyrazolo[3,4-d]pyrimidin-1-yl}pyrrolidin-1-yl]prop-2-en-1-one] | ≤ 100 nM
19 | C=CC(=O)N1C[C@@H](n2nc(C#Cc3c(Cl)cc4c(ncn4CC)c3F)c3c(N)ncnc32)C[C@@H]1COC [Example 116, 1-[(2R,4S)-4-[4-Amino-3-[2-(6-chloro-1-ethyl-4-fluoro-1,3-benzodiazol-5-yl)ethynyl]pyrazolo [3,4-d]pyrimidin-1-yl]-2-(methoxymethyl)pyrrolidin-1-yl]prop-2-en-1-one] | ≤ 100 nM
20 | C=CC(=O)N1C[C@@H](n2nc(C#Cc3ccc4c(cnn4C)c3)c3c(N)nccc32)C[C@@H]1COC [Example 35, 1-[(2R,4S)-4-[4-amino-3-[2-(1-methylindazol-5-yl)ethynyl]pyrazolo[4,3-c]pyridin-1-yl]-2-(methoxymethyl)pyrrolidin-1-yl]prop-2-en-1-one] | 100 to 1000 nM
21 | C=CC(=O)N1C[C@@H](n2cc(C#Cc3cc4ncn(C5CC5)c4cc3Cl)c3c(N)ncnc32)C[C@@H]1COC [Example 127, 1-[(2R,4S)-4-[4-Amino-5-[2-(6-chloro-1-cyclopropyl-1,3-benzodiazol-5-yl)ethynyl]pyrrolo[2,3-d]pyrimidin-7-yl]-2-(methoxymethyl)pyrrolidin-1-yl] prop-2-en-1-one] | ≤ 100 nM
22 | C=CC(=O)N1C[C@@H](n2nc(C#Cc3ccc4c(c3)nc(C(F)(F)F)n4C)c3c(N)nccc32)C[C@@H]1COC [Example 47, 1-((2R,4S)-4-(4-amino-3-((1-methyl-2-(trifluoromethyl)-1H-benzo[d]imidazol-5-yl)ethynyl)-1H-pyrazolo[4,3-c]pyridin-1-yl)-2-(methoxymethyl)pyrrolidin-1-yl)prop-2-en-1-one] | ≤ 100 nM
23 | C=CC(=O)N1C[C@@H](n2nc(C#Cc3cc4ncn(CC)c4cc3Cl)c3c(N)nccc32)C[C@@H]1COC [Example 88, 1-[(2R,4S)-4-[4-Amino-3-[2-(6-chloro-1-ethyl-1,3-benzodiazol-5-yl)ethynyl]pyrazolo[4,3-c]pyridin-1-yl]-2-(methoxymethyl)pyrrolidin-1-yl]prop-2-en-1-one] | ≤ 100 nM
